Source: patent publication US9695155B2, “Herbicidal substituted pyrimidinyloxy benzene compounds” (E. I. DU PONT DE NEMOURS AND COMPANY, priority 2013, dated 2017)

Columns and labels:
[1] = test system: pigweed; experiment: Test D postemergence; assay type: in vivo, Amaranthus retroflexus; settings: Amaranthus retroflexus, post-emergence, scale 0 to 100 (0 no effect, 100 complete control), read-out: Plant response rating, Pigweed
In short: (§1)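 After treatment, visual injury versus untreated plants, 0–100 scale, assessed at 7 to 21 days. Applications were made preemergence to silt loam-sown seed and postemergence to seedlings 2–18 cm high in potting medium.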

[2] = test system: field violet; experiment: Test D postemergence; assay type: in vivo, Viola arvensis; settings: Viola arvensis, post-emergence, scale 0 to 100 (0 no effect, 100 complete control), read-out: Plant response rating, Field Violet
In short: as §1

[3] = test system: galium; experiment: Test D preemergence; assay type: in vivo, Galium aparine; settings: Galium, pre-emergence, scale 0-100, read-out: Plant response rating, Galium
In short: as §1

[4] = test system: oilseed rape; experiment: Test D preemergence; assay type: in vivo, Brassica napus; settings: Brassica napus, pre-emergence, scale 0-100, read-out: Plant response rating, Oilseed Rape
In short: as §1

[5] = test system: canarygrass; experiment: Test D preemergence; assay type: in vivo, Phalaris minor; settings: Phalaris minor, pre-emergence, scale 0-100, read-out: Plant response rating, Canarygrass
In short: as §1

[6] = test system: chamomile; experiment: Test D preemergence; assay type: in vivo, Matricaria inodora; settings: Tripleurospermum inodorum, pre-emergence, scale 0-100, read-out: Plant response rating, Chamomile
In short: as §1

[7] = test system: galium; experiment: Test D postemergence; assay type: in vivo, Galium aparine; settings: Galium, post-emergence, scale 0 to 100 (0 no effect, 100 complete control), read-out: Plant response rating, Galium
In short: as §1

[8] = test system: speedwell; experiment: Test D preemergence; assay type: in vivo, Veronica persica; settings: Veronica persica, pre-emergence
In short: as §1

[9] = test system: hairy beggarticks; experiment: Test E postemergence; assay type: in vivo, Bidens pilosa; settings: Bidens pilosa, post-emergence, read-out: Plant response rating, Beggarticks
In short: (§2)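 Compound in a non-phytotoxic solvent mixture with surfactant was applied preemergence to seeds in silt loam soil, or postemergence to plants 2 to 18 cm tall grown in peat-based potting medium. Plants were kept in a greenhouse for 14 to 21 days, then rated visually against untreated controls on a 0 (no effect) to 100 (complete control) scale.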

[10] = test system: wild radish; experiment: Test D preemergence; assay type: in vivo, Raphanus raphanistrum; settings: Raphanus raphanistrum, pre-emergence
In short: as §1

[11] = test system: green foxtail; experiment: Test D preemergence; assay type: in vivo, Setaria viridis; settings: Setaria viridis, pre-emergence, scale 0-100, read-out: Plant response rating, Foxtail, Green
In short: as §1

[12] = test system: pigweed; experiment: Test D preemergence; assay type: in vivo, Amaranthus retroflexus; settings: Amaranthus retroflexus, pre-emergence
In short: as §1

[13] = test system: soybean; experiment: Test E postemergence; assay type: in vivo, Glycine max; settings: Glycine max, post-emergence
In short: as §2

[14] = Postemergence, 31 g ai/ha, scale 0 to 100
[15] = Postemergence, 62 g ai/ha, scale 0 to 100
[16] = Postemergence, 125 g ai/ha, scale 0 to 100
[17] = Postemergence, 250 g ai/ha, scale 0 to 100
[18] = postemergence, 16 g ai/ha, scale 0 to 100, 0 no effect, 100 complete control

N#Cc1cccc(Oc2ncc(Br)cn2)c1-n1cc(C(F)(F)F)cn1 [Compound 59, 3-[(5-bromo-2-pyrimidinyl)oxy]-2-[4-(trifluoromethyl)-1H-pyrazol-1-yl]benzonitrile]
35%: pest or weed control at 31 g/ha ([11]; 31 g ai/ha)
15%: pest or weed control at 62 g/ha ([5]; 62 g ai/ha) | pest or weed control at 62 g/ha ([6]; 62 g ai/ha) | pest or weed control at 31 g/ha ([8]; 31 g ai/ha, scale 0 (no effect) to 100 (complete control), read-out: Plant response rating, Speedwell)
50%: pest or weed control at 16 g/ha [9, 18]
10%: pest or weed control at 31 g/ha ([6]; 31 g ai/ha)
60%: pest or weed control at 125 g/ha ([3]; 125 g ai/ha) | plant injury at 62 g/ha ([4]; 62 g ai/ha) | pest or weed control at 31 g/ha [9, 14] | pest or weed control at 62 g/ha [9, 15] | plant response (crop injury) rating, soybean, 0-100 scale at 16 g/ha [13, 18]
100%: pest or weed control at 31 g/ha ([1]; 31 g ai/ha) | pest or weed control at 62 g/ha ([1]; 62 g ai/ha) | pest or weed control at 31 g/ha ([2]; 31 g ai/ha) | pest or weed control at 62 g/ha ([2]; 62 g ai/ha) | pest or weed control at 125 g/ha ([2]; 125 g ai/ha) | pest or weed control at 250 g/ha ([2]; 250 g ai/ha) | pest or weed control at 250 g/ha ([3]; 250 g ai/ha) | plant injury at 125 g/ha ([4]; 125 g ai/ha) | plant injury at 250 g/ha ([4]; 250 g ai/ha) | pest or weed control at 250 g/ha ([5]; 250 g ai/ha) | pest or weed control at 62 g/ha ([8]; 62 g ai/ha, scale 0-100, read-out: Plant response rating, Speedwell) | pest or weed control at 125 g/ha ([8]; 125 g ai/ha, scale 0-100, read-out: Plant response rating, Speedwell) | pest or weed control at 250 g/ha ([8]; 250 g ai/ha, scale 0-100, read-out: Plant response rating, Speedwell) | pest or weed control at 62 g/ha ([10]; 62 g ai/ha, scale 0-100, read-out: Plant response rating, Radish, Wild) | pest or weed control at 250 g/ha ([10]; 250 g ai/ha, scale 0-100, read-out: Plant response rating, Radish, Wild) | pest or weed control at 62 g/ha ([11]; 62 g ai/ha) | pest or weed control at 125 g/ha ([11]; 125 g ai/ha) | pest or weed control at 250 g/ha ([11]; 250 g ai/ha) | pest or weed control at 31 g/ha ([12]; 31 g ai/ha, scale 0 (no effect) to 100 (complete control), read-out: Plant response rating, Pigweed) | pest or weed control at 62 g/ha ([12]; 62 g ai/ha, scale 0-100, read-out: Plant response rating, Pigweed) | pest or weed control at 125 g/ha ([12]; 125 g ai/ha, scale 0-100, read-out: Plant response rating, Pigweed) | pest or weed control at 250 g/ha ([12]; 250 g ai/ha, scale 0-100, read-out: Plant response rating, Pigweed)
0%: pest or weed control at 31 g/ha ([3]; 31 g ai/ha)
98%: plant response (crop injury) rating, soybean, 0-100 scale at 250 g/ha [13, 17]
70%: pest or weed control at 125 g/ha [9, 16]
65%: plant injury at 31 g/ha ([4]; 31 g ai/ha) | pest or weed control at 125 g/ha ([5]; 125 g ai/ha) | plant response (crop injury) rating, soybean, 0-100 scale at 31 g/ha [13, 14]
95%: pest or weed control at 125 g/ha ([1]; 125 g ai/ha) | pest or weed control at 250 g/ha ([1]; 250 g ai/ha) | pest or weed control at 62 g/ha ([3]; 62 g ai/ha) | pest or weed control at 125 g/ha ([6]; 125 g ai/ha) | pest or weed control at 125 g/ha ([7]; 125 g ai/ha) | pest or weed control at 250 g/ha ([7]; 250 g ai/ha) | pest or weed control at 250 g/ha [9, 17] | pest or weed control at 31 g/ha ([10]; 31 g ai/ha, scale 0 (no effect) to 100 (complete control), read-out: Plant response rating, Radish, Wild) | pest or weed control at 125 g/ha ([10]; 125 g ai/ha, scale 0-100, read-out: Plant response rating, Radish, Wild) | plant response (crop injury) rating, soybean, 0-100 scale at 62 g/ha [13, 15] | plant response (crop injury) rating, soybean, 0-100 scale at 125 g/ha [13, 16]
5%: pest or weed control at 31 g/ha ([5]; 31 g ai/ha)
75%: pest or weed control at 31 g/ha ([7]; 31 g ai/ha)
85%: pest or weed control at 250 g/ha ([6]; 250 g ai/ha)
80%: pest or weed control at 62 g/ha ([7]; 62 g ai/ha)
